B1: WT: wild-type TEM-1 β-lactamase (protein, UniProt P62593 24-286, looked up)
Beta-lactamase TEM: HPETLVKVKDAEDQLGARVGYIELDLNSGKILESFRPEERFPMMSTFKVLLCGAVLSRVDAGQEQLGRRIHYSQNDLVEYSPVTEKHLTDGMTVRELCSAAITMSDNTAANLLLTTIGGPKELTAFLHNMGDHVTRLDRWEPELNEAIPNDERDTTMPAAMATTLRKLLTGELLTLASRQQLIDWMEADKVAGPLLRSALPAGWFIADKSGAGERGSRGIIAALGPDGKPSRIVVIYTTGSQATMDERNRQIAEIGASLIKHW

Columns and labels:
[1] = biological target: TEM-1 β-lactamase WT (native enzyme) (Escherichia coli, UniProt P62593); experiment: DSF shift in Tm after incubation with moxalactam, WT; format: binding; conditions: 100-fold molar excess moxalactam
TEM-1 β-lactamase M182T = TEM-1 β-lactamase M182T (Escherichia coli, UniProt P62593, M180T); experiment: DSF shift in Tm after incubation with moxalactam, M182T; format: binding; conditions: 100-fold molar excess moxalactam
TEM-1 β-lactamase G238S = TEM-1 β-lactamase G238S (Escherichia coli, UniProt P62593, G236S); experiment: DSF shift in Tm after incubation with moxalactam, G238S; format: binding; conditions: 100-fold molar excess moxalactam
[2] = biological target: TEM-1 β-lactamase M182T/G238S (Escherichia coli, UniProt P62593, G236S/M180T); experiment: DSF shift in Tm after incubation with moxalactam, M182T/G238S; format: binding; conditions: 100-fold molar excess moxalactam
Sor/CR colloids = format: binding; conditions: concentration of TEM-1 mutant at which 50% of fluorescent L2gd is displaced; 100 nM 5-MF-L2gd, 20 μM Sor/CR colloids
[3] = van't Hoff enthalpy of unfolding; format: physicochemical; conditions: Table S1

Row | Molecule | lowering of Tm [1] | destabilization (lowering of Tm) (TEM-1 β-lactamase M182T) | destabilization (lowering of Tm) (TEM-1 β-lactamase G238S) | effect on Tm [2] | EC50 (Sor/CR colloids) | van't Hoff enthalpy of unfolding [3]
1 | CO[C@@]1(NC(=O)[C@H](C(=O)O)c2ccc(O)cc2)C(=O)N2C(C(=O)O)=C(CSc3nnnn3C)CO[C@@H]21 [moxalactam] | 4.5 °C | 4.1 °C | 1.9 °C | no substantial effect | – | –
2 | B1 | – | – | – | – | 577 ± 303 µM | 139.5 kcal/mol
